Measured values reported in patent publication EP0341019A2, “Polyether antibiotic” (priority 1988, dated 1989).
In brackets after ≈: the same amount, converted by molar mass.

Experiments:
[1] = test system: Pseudomonas aeruginosa X528; assay type: cell-based; conditions: X528, 24 h
[2] = test system: Bacteroides fragilis 1936B; assay type: cell-based; conditions: 24 h
[3] = test system: Peptococcus prevoti 1281; assay type: cell-based; conditions: 24 h
[4] = test system: Eimeria tenella; test: in vitro tissue-culture anticoccidial screen; assay type: cell-based; conditions: in vitro tissue-culture screen against Eimeria tenella
Source text: Anticoccidial activity is an important property of the A82810 compounds. For example, in an in vitro tissue-culture screen against Eimeria tenella, A82810 was active at <0.0025 mcg/mL, propionyl-A82810 was active at 0.05 mcg/mL and acetyl-A82810 was active at 0.01 mcg/mL.

[5] = test system: Brazil influenza virus; assay type: cell-based; conditions: tissue culture
[6] = test system: Proteus sp.; assay type: cell-based; conditions: 24 h
[7] = test system: Enterobacter aerogenes C32; assay type: cell-based; conditions: Klebsiella aerogenes, C32, 24 h
[8] = test system: Serratia marcescens X99; assay type: cell-based; conditions: X99, 24 h
[9] = test system: Staphylococcus aureus V41; assay type: cell-based; conditions: V41, 24 h
[10] = test system: E. maxima Strain LIT-626; test: anticoccidial feed test in infected chickens, ionophore-resistant strain; assay type: in vivo
[11] = test system: Eubacterium aerofaciens 1235; assay type: cell-based; conditions: Collinsella aerofaciens, 1235, 24 h
[12] = test system: Streptococcus faecalis 2041; assay type: cell-based; conditions: Enterococcus faecalis, 2041, 24 h
[13] = test system: Escherichia coli TEM; assay type: cell-based; conditions: 24 h
[14] = effect on growth of uninfected chicks; assay type: in vivo; conditions: Table XXI, Compound ppm r3-r7: 0,8,10,12,14
Source text: Newly hatched chickens are raised in a coccidial-free environment for a seven-day period. On the morning of the eighth day, the chickens are weighed and assigned to treatment groups.
Each group of chicks (usually 4 or 5 chicks per group) is housed in a battery cage during the experiment. A constant lighting schedule and ad libitum access to feed (each experiment contains non-medicated and drug-medicated treatments) and water are provided for the chicks in each battery. Two days after the experiment is initiated, chicks that are designated to be infected are crop-intubated with a pure suspension of coccidial oocysts. The oocyst dosage used in each test is designed to produce clinical coccidiosis in infected nonmedicated animals.
After an additional seven-day growth period, the experiment is terminated. Each group of chicks is weighed, and the amount of feed consumed by each group is determined. From these measurements, final bird weights and efficiency of feed utilization are calculated. All birds are then sacrificed, and the intestine. and cecum are examined for the presence of coccidial-induced lesions.

[15] = test system: Streptococcus faecium X66; assay type: cell-based; conditions: Enterococcus faecium, X66, 24 h
[16] = test system: Herpes simplex viruses (HSV II); test: antiviral tissue-culture test; assay type: cell-based, Herpes simplex virus
[17] = test system: Staphylococcus epidermidis 222; assay type: cell-based; conditions: Staphylococcus epidermidis, 222, 24 h
[18] = test system: Haemophilus influenzae 76; assay type: cell-based; conditions: Haemophilus influenzae, 76, 24 h
[19] = test system: Escherichia coli EC14; assay type: cell-based; conditions: EC14, 24 h
[20] = test system: Eimeria acervulina Strain FS-273 and E. tenella Strain FS-456; test: anticoccidial feed test in infected chickens, ionophore-resistant strains; assay type: in vivo
[21] = test system: Pseudomonas aeruginosa PS18; assay type: cell-based; conditions: PS18, 24 h
[22] = test system: Bacteroides corrodens 1874; assay type: cell-based; conditions: Eikenella corrodens, 1874, 24 h
[23] = test system: Bacteroides thetaiotaomicron 1438; assay type: cell-based; conditions: 24 h
[24] = test system: Streptococcus pneumoniae Park 1; assay type: cell-based; conditions: 24 h
[25] = test system: Great Lakes influenza virus; assay type: cell-based; conditions: tissue culture
[26] = test system: Bacteroides vulgatis 1211; assay type: cell-based; conditions: Bacteroides, 1211, 24 h
[27] = test system: Bacteroides fragilis 1877; assay type: cell-based; conditions: Bacteroides fragilis, 1877, 24 h
[28] = test system: Fusobacterium necrophorum 6054A; assay type: cell-based; conditions: 24 h
[29] = test system: Eimeria maxima Strain FS-177; test: anticoccidial feed test in infected chickens, ionophore-sensitive strain; assay type: in vivo
[30] = test system: Peptococcus asaccharolyticus 1302; assay type: cell-based; conditions: Peptoniphilus asaccharolyticus, 1302, 24 h
[31] = test system: Peptostreptococcus intermedius 1624; assay type: cell-based; conditions: Peptostreptococcus, 1624, 24 h
[32] = test system: Propionibacterium acnes 79; assay type: cell-based; conditions: Cutibacterium acnes, 79, 24 h
[33] = test system: Bacteroides melaninogenicus 1856/28; assay type: cell-based; conditions: Prevotella intermedia, 1856/28, 24 h
[34] = test system: Enterobacter aerogenes EB17; assay type: cell-based; conditions: Klebsiella aerogenes, EB17, 24 h

## CC[C@@H](O)[C@]1(C)C[C@H](C)[C@@](O)([C@H]2C[C@H](C)[C@H]([C@]3(C)C[C@@H](O[C@H]4CC[C@H](OC)[C@@H](C)O4)[C@H]([C@]4(C)CC[C@@]5(O[C@H]([C@@H](C)[C@@H](OC)[C@H](C)C(=O)O)[C@H](C)[C@@H](OC)[C@H]5C)O4)O3)O2)O1 [Example A82810]
[1]
  MIC: 2 µg/mL (≈ 2.37 µM)
[2]
  MIC: 8 µg/mL (≈ 9.49 µM)
[3]
  MIC: ≤ 0.25 µg/mL
[4]
  active at: < 0.0025 µg/mL
[5]
  active at a level of: 250 µg/mL
[6]
  MIC: > 128 µg/mL
[7]
  MIC: 8 µg/mL (≈ 9.49 µM)
[8]
  MIC: > 128 µg/mL
[9]
  MIC: 1 µg/mL (≈ 1.19 µM)
[10]; 1.25 ppm
  AVERAGE INTESTINAL LESION SCORES: 3.7
  WEIGHT GAIN, PERCENT OF CONTROL: 99% OF CONTROL
[10]; 1.5 ppm
  AVERAGE INTESTINAL LESION SCORES: 3.3
  WEIGHT GAIN, PERCENT OF CONTROL: 102% OF CONTROL
[10]; 1.75 ppm
  AVERAGE INTESTINAL LESION SCORES: 4.0
  WEIGHT GAIN, PERCENT OF CONTROL: 101% OF CONTROL
[10]; 2 ppm
  AVERAGE INTESTINAL LESION SCORES: 3.3
  WEIGHT GAIN, PERCENT OF CONTROL: 94% OF CONTROL
[11]
  MIC: ≤ 0.25 µg/mL
[12]
  MIC: 1 µg/mL (≈ 1.19 µM)
[13]
  MIC: > 128 µg/mL
[14]; A82810 1.25 ppm
  WEIGHT GAIN, PERCENT OF CONTROL: 98% OF CONTROL
[14]; A82810 1.5 ppm
  WEIGHT GAIN, PERCENT OF CONTROL: 101% OF CONTROL
[14]; A82810 1.75 ppm
  WEIGHT GAIN, PERCENT OF CONTROL: 105% OF CONTROL
[14]; A82810 2.0 ppm
  WEIGHT GAIN, PERCENT OF CONTROL: 99% OF CONTROL
[15]
  MIC: 1 µg/mL (≈ 1.19 µM)
[16]
  active at levels as low as: 1.56 µg/mL
[17]
  MIC: 0.5 µg/mL (≈ 0.593 µM)
[18]
  MIC: 64 µg/mL (≈ 75.9 µM)
[19]
  MIC: 8 µg/mL (≈ 9.49 µM)
[20]; 2 ppm
  LESION SCORE: 7.2
  PERCENT REDUCTION IN OOCYST PRODUCTION: 22%
  WEIGHT GAIN, PERCENT OF CONTROL: 68% OF CONTROL
[20]; 6 ppm
  LESION SCORE: 3.7
  PERCENT REDUCTION IN OOCYST PRODUCTION: 65%
  WEIGHT GAIN, PERCENT OF CONTROL: 89% OF CONTROL
[20]; 10 ppm
  LESION SCORE: 2.0
  PERCENT REDUCTION IN OOCYST PRODUCTION: 83%
  WEIGHT GAIN, PERCENT OF CONTROL: 86% OF CONTROL
[21]
  MIC: > 128 µg/mL
[22]
  MIC: 8 µg/mL (≈ 9.49 µM)
[23]
  MIC: 8 µg/mL (≈ 9.49 µM)
[24]
  MIC: 1 µg/mL (≈ 1.19 µM)
[25]
  active at a level of: 250 µg/mL
[26]
  MIC: 4 µg/mL (≈ 4.74 µM)
[27]
  MIC: 8 µg/mL (≈ 9.49 µM)
[28]
  MIC: ≤ 0.25 µg/mL
[29]; 2 ppm
  AVERAGE INTESTINAL LESION SCORES: 1.9
[29]; 6 ppm
  AVERAGE INTESTINAL LESION SCORES: 0.6
  WEIGHT GAIN, PERCENT OF CONTROL: 108% OF CONTROL
[29]; 10 ppm
  AVERAGE INTESTINAL LESION SCORES: 0.2
  WEIGHT GAIN, PERCENT OF CONTROL: 102% OF CONTROL
[30]
  MIC: ≤ 0.25 µg/mL
[31]
  MIC: ≤ 0.25 µg/mL
[32]
  MIC: 2 µg/mL (≈ 2.37 µM)
[33]
  MIC: 8 µg/mL (≈ 9.49 µM)
[34]
  MIC: 8 µg/mL (≈ 9.49 µM)
